Results as given in patent US8580820B2, “Tubulysin compounds with high cytotoxicity, pharmaceutical compositions thereof, and method of use thereof” (Kemtech S.r.L., priority 2009, dated 2013).
Like-named read-outs stand apart in the source and are kept apart here.

How the values were obtained:
C6 (rat glioma) = experiment: Cytotoxicity in vitro, cellular viability (ATPlite Perkin Elmer test), C6; type: cell-based; parameters: cellular viability (ATPlite Perkin Elmer test): unit not given here; conditions: C6, 72 hours
Protocol: (§1) The cytotoxic effects of the compounds of formula (A) were evaluated by treating […] with different concentrations of the compounds under screening. The following cell lines were used: A2780 (human ovarian carcinoma), HL60 (human leukaemia), C6 (rat glioma) and HT29 (adenocarcinoma of human colon). The cell lines have been obtained by ECACC (European Collection of Cell Cultures).
(§2) The cell lines have been cultured in 75 cm^2 flasks with culture medium DMEM (Dulbecco's Medium Eagle Modified, Sigma Aldrich®) and the following additives (Sigma Aldrich®): L-Glutamine 2 mM, 10% Fetal Bovine Serum, Penicillin/-Streptomycin, Fungizone, Gentamycin. The incubation was carried out in modified atmosphere incubators (37° C., 5% CO2). When cell confluence was obtained, the cells were propagated by dilution in a ratio 1:3/1:5 by using a Trypsin-EDTA 1× solution and then transferred into 96 well plates in the suitable culture medium. The cells were then treated for 72 hours with different concentrations (10^−13+10^−4 M) of the compounds under examination. For the tests in vitro the compounds obtained in the examples 1.15 and 6.8 were solubilised in dimethylsulphoxide (DMSO). All the tests were performed with a constant DMSO concentration equal to 0.1% by weight.
(§3) In order to control the cellular viability, the ATPlite test (Perkin Elmer) was used. The APTlite test evaluates the ATP production. APT is a marker of cellular viability as it is present in all the metabolically active cells. The test’ is based on the chemiluminiscence due to the ATP reaction with the luciferase and the D-luciferin. The emitted light is proportional to the ATP concentration. For the reading the Victor 3 instrument by Perkin Elmer was used.
(§4) Four readings were taken for each sample solution. The results (average values) for the cytotoxicity of the compounds of formula (A) obtained in examples 1.15 and 6.8 are reported respectively in Tables 1 and 2. It is noted that the GI50 values determined by means of the cellular viability values are lower than 2 nM. This confirms the high cytotoxicity of the compound of formula (A).

[1] = as above; type: cell-based, rat; parameters: cellular viability (ATPlite Perkin Elmer test): unit not given here; conditions: rat, C6 rat glioma cells, C6, 72 hours
Protocol: as §1, §2, §3, §4

[2] = test system: A2780, HL60, C6 and HT29 cell lines; experiment: Cytotoxicity in vitro, summary over the cell lines of example 14; type: cell-based, human; rat; conditions: all cell lines of Tables 1 and 2; read-out: GI50 values determined by means of the cellular viability values
Protocol: as §1
as §2, with “All the tests were performed with a constant DMSO concentration equal to 0.1% by weight.” left out
In order to control the cellular viability, the ATPlite test (Perkin Elmer) was used. […] For the reading the Victor 3 instrument by Perkin Elmer was used.
Four readings were taken for each sample solution. […]

[3] = test system: A2780 (human ovarian carcinoma); experiment: Cytotoxicity in vitro, cellular viability (ATPlite Perkin Elmer test), A2780; type: cell-based; parameters: cellular viability (ATPlite Perkin Elmer test): unit not given here; conditions: 72 hours
Protocol: as §1, §2, §3, §4

HL60 (human leukaemia) = experiment: Cytotoxicity in vitro, cellular viability (ATPlite Perkin Elmer test), HL60; type: cell-based; parameters: cellular viability (ATPlite Perkin Elmer test): unit not given here; conditions: HL60; for GI50: Homo sapiens, HL-60
Protocol: as §1, §2, §3, §4

[4] = test system: HT29 (adenocarcinoma of human colon); experiment: Cytotoxicity in vitro, cellular viability (ATPlite Perkin Elmer test), HT29; type: cell-based; parameters: cellular viability (ATPlite Perkin Elmer test): unit not given here; conditions: for cellular viability (ATPlite Perkin Elmer test): 72 hours
Protocol: as §1, §2, §3, §4

CC[C@H](C)[C@H](NC(=O)[C@H]1CCCCN1C)C(=O)N(CCOC)[C@H](C[C@@H](OC(C)=O)c1nc(C(=O)N[C@@H](Cc2ccccc2)C[C@H](C)C(=O)O)cs1)C(C)C [Example 6.8, (2S,4R)-4-(2-((1R,3R)-1-acetoxy-3-((2S,3R)—N(2-methoxyethyl)-3-methyl-2-(1-methylpiperidine-2-carboxamido)pentanamido)-4-methylpentyl)thiazol-4-carboxamido)-2-methyl-5-phenylpentanoic acid]
cellular viability (ATPlite Perkin Elmer test) (C6 (rat glioma); compound 10^−4 mole/litre): 19.10 | cellular viability (ATPlite Perkin Elmer test) (C6 (rat glioma); compound 10^−7 mole/litre): 20.70 | cellular viability (ATPlite Perkin Elmer test) (C6 (rat glioma); compound 10^−8 mole/litre): 25.60 | cellular viability (ATPlite Perkin Elmer test) (C6 (rat glioma); compound 10^−9 mole/litre): 39.57 | cellular viability (ATPlite Perkin Elmer test) (C6 (rat glioma); compound 10^−10 mole/litre): 64.15 | cellular viability (ATPlite Perkin Elmer test) (C6 (rat glioma); compound 10^−11 mole/litre): 96.68 | cellular viability (ATPlite Perkin Elmer test) (C6 (rat glioma); compound 10^−12 mole/litre): 99.13 | cellular viability (ATPlite Perkin Elmer test) (C6 (rat glioma); compound 10^−13 mole/litre): 101.2 | GI50 (C6 (rat glioma); Rattus norvegicus, value is GI50 multiplied by 10^9, Table 2, read-out: GI50 × 10^9): 0.147 nM | viability at 72 h ([1]; compound 10^−5 mole/litre): 20.2% | viability at 72 h ([1]; compound 10^−6 mole/litre): 19.6% | GI50 [2]: < 2 nM | GI50 ([3]; Homo sapiens, value is GI50 multiplied by 10^9, Table 2, read-out: GI50 × 10^9): 1.54 nM | cellular viability (ATPlite Perkin Elmer test) ([3]; compound 10^−4 mole/litre): 3.08 | cellular viability (ATPlite Perkin Elmer test) ([3]; compound 10^−5 mole/litre): 8.41 | cellular viability (ATPlite Perkin Elmer test) ([3]; compound 10^−6 mole/litre): 9.11 | cellular viability (ATPlite Perkin Elmer test) ([3]; compound 10^−7 mole/litre): 9.11 | cellular viability (ATPlite Perkin Elmer test) ([3]; compound 10^−8 mole/litre): 22.80 | cellular viability (ATPlite Perkin Elmer test) ([3]; compound 10^−9 mole/litre): 64.56 | cellular viability (ATPlite Perkin Elmer test) ([3]; compound 10^−10 mole/litre): 106.7 | cellular viability (ATPlite Perkin Elmer test) ([3]; compound 10^−11 mole/litre): 109.7 | cellular viability (ATPlite Perkin Elmer test) ([3]; compound 10^−12 mole/litre): 104.1 | cellular viability (ATPlite Perkin Elmer test) ([3]; compound 10^−13 mole/litre): 104.0 | cellular viability (ATPlite Perkin Elmer test) (HL60 (human leukaemia); compound 10^−4 mole/litre, 72 hours): 0.75 | cellular viability (ATPlite Perkin Elmer test) (HL60 (human leukaemia); compound 10^−5 mole/litre, 72 hours): 1.22 | cellular viability (ATPlite Perkin Elmer test) (HL60 (human leukaemia); compound 10^−6 mole/litre, 72 hours): 1.25 | cellular viability (ATPlite Perkin Elmer test) (HL60 (human leukaemia); compound 10^−7 mole/litre, 72 hours): 1.14 | cellular viability (ATPlite Perkin Elmer test) (HL60 (human leukaemia); compound 10^−8 mole/litre, 72 hours): 1.04 | cellular viability (ATPlite Perkin Elmer test) (HL60 (human leukaemia); compound 10^−9 mole/litre, 72 hours): 1.36 | cellular viability (ATPlite Perkin Elmer test) (HL60 (human leukaemia); compound 10^−10 mole/litre, 72 hours): 3.53 | cellular viability (ATPlite Perkin Elmer test) (HL60 (human leukaemia); compound 10^−11 mole/litre, 72 hours): 56.38 | cellular viability (ATPlite Perkin Elmer test) (HL60 (human leukaemia); compound 10^−12 mole/litre, 72 hours): 102.0 | cellular viability (ATPlite Perkin Elmer test) (HL60 (human leukaemia); compound 10^−13 mole/litre, 72 hours): 100.9 | GI50 (HL60 (human leukaemia); 72 hours, value is GI50 multiplied by 10^9, Table 2, read-out: GI50 × 10^9): 0.0108 nM | GI50 ([4]; Homo sapiens, HT-29, 72 hours, value is GI50 multiplied by 10^9, Table 2): 0.278 nM | cellular viability (ATPlite Perkin Elmer test) ([4]; compound 10^−4 mole/litre): 11.55 | cellular viability (ATPlite Perkin Elmer test) ([4]; compound 10^−5 mole/litre): 11.46 | cellular viability (ATPlite Perkin Elmer test) ([4]; compound 10^−6 mole/litre): 18.08 | cellular viability (ATPlite Perkin Elmer test) ([4]; compound 10^−7 mole/litre): 17.68 | cellular viability (ATPlite Perkin Elmer test) ([4]; compound 10^−8 mole/litre): 20.38 | cellular viability (ATPlite Perkin Elmer test) ([4]; compound 10^−9 mole/litre): 24.49 | cellular viability (ATPlite Perkin Elmer test) ([4]; compound 10^−10 mole/litre): 95.7 | cellular viability (ATPlite Perkin Elmer test) ([4]; compound 10^−11 mole/litre): 115.6 | cellular viability (ATPlite Perkin Elmer test) ([4]; compound 10^−12 mole/litre): 107.5 | cellular viability (ATPlite Perkin Elmer test) ([4]; compound 10^−13 mole/litre): 108.0

CC[C@H](C)[C@H](NC(=O)[C@H]1CCCCN1C)C(=O)N(CCOC)[C@H](C[C@@H](OC(C)=O)c1nc(C(=O)NC)cs1)C(C)C [Example 15.4, (1R,3R)-3-((2S,3S)—N-(2-methoxyethyl)-3-methyl-2-((R)-1-methylpiperidine-2-carboxamido)pentanamido)-4-methyl-1-(4-(methylcarbamoyl)thiazol-2-yl)pentyl acetate, reference compound]
cell viability (HL60 (human leukaemia); concentration of 10^−10 mole/liter): 96% | cell viability (HL60 (human leukaemia); concentration of 10^−11 mole/liter): 99.8% | times less toxic than the compounds of the present invention (HL60 (human leukaemia); ratio of GI50 values): 10^3 times | GI50 (HL60 (human leukaemia); read-out: citotoxicity, expressed as GI50): 10 nM
